# How the values were obtained:
# [1] = target: T1, 5-Lipoxygenase from RBL-1 20,000 × g Supernatant (Rattus norvegicus, UniProt P12527); experiment: 5-lipoxygenase inhibition in 20,000 xg supernatant of homogenized RBL-1 cells (radiolabeled arachidonic acid); format: biochemical; conditions: in vitro, incubations in triplicate, read-out: IC50 × 10^6 Molar
# T1 construct: 20,000 xg supernatant from 1.5 million homogenized RBL-1 cells; endogenous in cells; host or cells: RBL-1 cells, 20,000 xg supernatant of homogenate
# T1 sequence (P12527 1-673): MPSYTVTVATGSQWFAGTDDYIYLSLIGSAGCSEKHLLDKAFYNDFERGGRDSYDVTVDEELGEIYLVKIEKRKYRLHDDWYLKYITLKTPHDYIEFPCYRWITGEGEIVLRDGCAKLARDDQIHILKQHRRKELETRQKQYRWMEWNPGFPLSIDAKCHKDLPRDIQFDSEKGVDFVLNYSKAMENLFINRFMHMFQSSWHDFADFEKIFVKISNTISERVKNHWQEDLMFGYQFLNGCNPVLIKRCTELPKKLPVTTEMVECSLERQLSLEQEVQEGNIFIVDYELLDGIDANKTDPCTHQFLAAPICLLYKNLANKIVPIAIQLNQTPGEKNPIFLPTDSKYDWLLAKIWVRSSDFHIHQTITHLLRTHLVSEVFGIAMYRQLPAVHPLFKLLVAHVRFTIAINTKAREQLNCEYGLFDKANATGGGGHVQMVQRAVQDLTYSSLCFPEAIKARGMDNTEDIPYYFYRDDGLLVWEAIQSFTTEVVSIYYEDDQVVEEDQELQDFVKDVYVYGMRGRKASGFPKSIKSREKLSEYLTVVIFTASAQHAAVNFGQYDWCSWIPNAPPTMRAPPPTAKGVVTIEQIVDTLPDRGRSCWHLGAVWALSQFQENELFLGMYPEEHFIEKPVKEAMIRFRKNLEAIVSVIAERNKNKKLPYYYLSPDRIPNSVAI
# Experimental: Assays to determine 5-lipoxygenase inhibitory activity were performed in […] incubations containing the 20,000 xg supernatant from 1.5 million homogenized RBL-1 cells and various concentrations of the test compound. Reactions were initiated by addition of radiolabeled arachidonic acid and terminated by acidification and ether extraction. Reaction products were separated from nonconverted substrate by thin layer chromatography and measured by liquid scintillation spectroscopy. All incubations are performed in triplicate. Inhibition of 5-lipoxygenase activity was calculated as the ratio of the amount of product formed in the presence and absence of inhibitor. IC50 values (concentration of compound producing 50% enzyme inhibition) were calculated by linear regression analysis of percentage inhibition versus log inhibitor concentration plots. (Dyer, R. D.; Haviv, F.; Hanel, A. M.; Bornemier, D. A.; Carter, G. W. Fed. Proc., Fed. Am. Soc. Exp. Biol. 1984, 43, 1462A).
# [2] = system: Leukotriene Biosynthesis; experiment: Inhibition of leukotriene biosynthesis in vivo, rat peritoneal anaphylaxis model; conditions: 200 μmol/kg oral (gavage) one hour prior to antigen challenge, peritoneal fluids 15 minutes after challenge
# Experimental: Inhibition of the biosynthesis of leukotrienes in vivo after oral administration of compound was determined using a rat peritoneal anaphylaxis model in a similar manner as that described by Young and coworkers (Young, P. R.; Dyer, R. D.; Carter, G. W. Carter, G. W. Fed. Proc., Fed. Am. Soc. Exp. Biol. 1985, 44, 1185). In this model rats were injected intraperitoneally (ip) with rabbit antibody to bovine serum albumin (BSA) and three hours later injected ip with BSA to induce an antigen antibody response. Rats were sacrificed 15 minutes after this challenge and the peritoneal fluids were collected and analyzed for leukotriene levels. Test compounds were administered by gavage one hour prior to the antigen challenge. Percent inhibition values were determined by comparing the treatment group to the mean of the control group, and the results are presented in Table 2 for representative compounds of the present invention.
SMILES,IC50 [1] [µM],Percent Inhibition of Leukotrienes at 200 μmol/kg (Oral Dose) [2] [%]
CC(COCc1ccco1)N(O)C(N)=O (stereo not shown) [Example 3],12,77
CC(COCc1ccsc1)N(O)C(N)=O (stereo not shown) [Example 21],8.4,–
"CNC(=O)N(O)C(C)CSCc1ccc(CN(C)C)o1 (stereo not shown) [Example 18, N-Hydroxy-N-[2-(1-(5-N,N-dimethylaminomethyl)fur-2-ylmethylthio)-propyl]-N'-methyl urea]",27.6,–
Cc1ccc(COCC(C)N(O)C(N)=O)o1 (stereo not shown) [Example 5],4.6,–
"CC(OCC(C)N(O)C(N)=O)c1ccco1 (stereo not shown) [Example 12, N-Hydroxy-N-[2-(1-[1-(fur-2-yl)ethoxy)]propyl] urea]",7.3,–
CC(COCc1cccs1)N(O)C(N)=O (stereo not shown) [Example 20],4.5,–
"CC(CSc1ccccn1)N(O)C(N)=O (stereo not shown) [Example 2, N-hydroxy-N-[2-(1-(2-pyridyl)thio)propyl] urea]",9.7,–
Cc1ccc(COCC(C)N(O)C(N)=O)s1 (stereo not shown) [Example 13],1.9,–
"Cc1ccc(C(C)OCC(C)N(O)C(N)=O)o1 (stereo not shown) [Example 7, N-Hydroxy-N-[2-(1-[1-(5-methylfur-2-yl)]ethoxy)propyl] urea]",6.6,–
CC(COCc1cc2ccccc2s1)N(O)C(N)=O (stereo not shown) [Example 17],0.46,89
CC(COCc1ccoc1)N(O)C(N)=O (stereo not shown) [Example 11],9.3,78
CC(CSCc1ccco1)N(O)C(N)=O (stereo not shown) [Example 1],5.5,71
"CC(OCCN(O)C(N)=O)c1cc2ccccc2s1 (stereo not shown) [Example 15, N-Hydroxy-N-[2-(1-[1-(benzo[b]thien-2-yl)]ethoxy)ethyl) urea]",0.2,–

# Now from value to compound, other results behind:
IC50 [1] [µM],SMILES,Percent Inhibition of Leukotrienes at 200 μmol/kg (Oral Dose) [2] [%]
3,"Cc1ccc(COCCN(O)C(N)=O)s1 [Example 14, N-Hydroxy-N-[2-(1-(5-methylthien-2-yl)methoxy)ethyl] urea]",92
7.3,"Cc1ccc(COCCN(O)C(N)=O)o1 [Example 6, N-Hydroxy-N-[2-(5-methylfur-2-ylmethoxy)ethyl] urea]",–
4.1,"NC(=O)N(O)CCOCc1cccs1 [Example 19, N-Hydroxy-N-[2-(thien-2-ylmethoxy)ethyl] urea]",100
5.7,Cc1cc(COCC(C)N(O)C(N)=O)c(C)o1 (stereo not shown) [Example 8],–
6.3,"Cc1ccc(C(C)OCCN(O)C(N)=O)o1 (stereo not shown) [Example 4, N-Hydroxy-N-[2-(1-[1-(5-methylfur-2-yl)]ethoxy)ethyl] urea]",–
6.9,"Cc1cc(COCCN(O)C(N)=O)c(C)o1 [Example 9, N-Hydroxy-N-[2-(1-(2,5-dimethylfur-3yl)methoxy)ethyl] urea]",–
0.67,"NC(=O)N(O)CCOCc1cc2ccccc2s1 [Example 16, N-Hydroxy-N-[2-(1-(benzo[b]thien-2-yl)methoxy)ethyl] urea]",–
6,Cc1occc1COCC(C)N(O)C(N)=O (stereo not shown) [Example 10],75

# — patent publication US5183818A, “Arylalkylether and arylalkylthioether inhibitors of lipoxygenase enzyme activity” (Abbott Laboratories, priority 1991, dated 1993)
